Assay results from patent publication US20030105095A1 (CHEIL JEDANG Corporation, priority 2001, published 2003).

Experiments:
[1] = target: T1, cyclooxygenase-2 (Mus musculus, UniProt Q05769); experiment: Cyclooxygenase-2 inhibition in aspirin-treated, LPS-induced mouse peritoneal macrophages (PGE2 ELISA); type: cell-based
T1 construct: blended with 3% FBS-RPMI 1640 medium containing 10 μg/ml of LPS in each well; endogenous in cells; host or cells: primary mouse peritoneal macrophages, pretreated with 500 μM aspirin and induced with LPS
T1 sequence (Q05769 18-604): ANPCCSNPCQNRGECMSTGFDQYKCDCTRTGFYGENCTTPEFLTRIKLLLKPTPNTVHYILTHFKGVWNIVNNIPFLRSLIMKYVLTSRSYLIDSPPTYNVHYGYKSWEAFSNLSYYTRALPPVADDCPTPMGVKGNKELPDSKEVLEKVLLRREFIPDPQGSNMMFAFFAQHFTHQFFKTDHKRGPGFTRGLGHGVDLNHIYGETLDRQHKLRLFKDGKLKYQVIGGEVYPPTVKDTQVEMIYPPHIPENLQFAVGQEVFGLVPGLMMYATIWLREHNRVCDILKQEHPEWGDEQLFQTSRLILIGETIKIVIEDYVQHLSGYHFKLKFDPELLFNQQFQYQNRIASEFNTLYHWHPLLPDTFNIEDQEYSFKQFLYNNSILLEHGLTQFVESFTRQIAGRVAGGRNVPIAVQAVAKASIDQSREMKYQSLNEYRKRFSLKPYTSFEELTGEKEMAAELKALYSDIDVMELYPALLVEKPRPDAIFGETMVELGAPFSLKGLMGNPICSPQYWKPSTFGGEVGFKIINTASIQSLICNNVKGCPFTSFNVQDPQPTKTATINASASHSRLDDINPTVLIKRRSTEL
Procedure: Second, the cyclooxygenase-2 was examined through the following procedure.
(§1) Peritoneal fluid in which macrophages were suspended was extracted from a mouse peritoneal cavity and centrifuged at 4° C., 1,000 rpm for 2 minutes. Then, the supernatant was removed, suspended using 20 ml of incomplete RPMI medium [PC/SM (penicilin/streptomycin)] and again centrifuged under the same condition. […] Then, the cell number was calculated with the hemocytometer and adjusted to reach 1×10^6 cells/ml of cell concentration in the final cell suspension. The resulting suspension was treated with aspirin, adjusting 500 μM of final concentration and poured into each well of 96-well plate in 100 μl respectively. Again, it was left with the incubator at 37° C. in 5% CO2 for about 2 hours in order to attach macrophages. […] The resulting cell was cultivated with the incubator at 37° C. in 5% CO2 for about 12˜16 hours. Then, arachidonic acid was added, adjusting to 10 μM of a final concentration and incubated at 37° C. for more 10 minutes and the supernatant of the reacted solution (˜180 μl) was recovered to finish the reaction.

[2] = target: T2, cyclooxygenase-1 (Mus musculus, UniProt P22437); experiment: Cyclooxygenase-1 inhibition in mouse peritoneal macrophages (PGE2 ELISA); type: cell-based
T2 construct: endogenous in cells; host or cells: primary mouse peritoneal macrophages (unstimulated)
T2 sequence (P22437 27-602): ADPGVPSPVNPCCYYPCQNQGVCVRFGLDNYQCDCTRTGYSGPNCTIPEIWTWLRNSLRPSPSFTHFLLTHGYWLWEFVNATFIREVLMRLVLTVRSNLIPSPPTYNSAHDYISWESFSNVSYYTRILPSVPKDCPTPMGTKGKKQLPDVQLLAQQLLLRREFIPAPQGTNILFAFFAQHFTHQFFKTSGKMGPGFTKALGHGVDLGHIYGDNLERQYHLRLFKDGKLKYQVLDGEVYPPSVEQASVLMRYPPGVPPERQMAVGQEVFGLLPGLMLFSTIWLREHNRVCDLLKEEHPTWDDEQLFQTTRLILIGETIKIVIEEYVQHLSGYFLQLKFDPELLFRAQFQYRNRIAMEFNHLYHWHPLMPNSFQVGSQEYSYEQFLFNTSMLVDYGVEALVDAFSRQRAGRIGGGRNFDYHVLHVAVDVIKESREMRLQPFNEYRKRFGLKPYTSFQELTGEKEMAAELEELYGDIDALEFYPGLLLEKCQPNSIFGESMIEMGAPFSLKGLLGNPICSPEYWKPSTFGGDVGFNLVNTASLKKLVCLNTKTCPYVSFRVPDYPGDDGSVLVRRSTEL
Procedure: First of all, the cyclooxygenase-1 was examined through the following procedure.
as §1, with “[including PC/SM” for “[PC/SM”, “was” for “was treated with aspirin, adjusting 500 μM of final concentration and”, “and” for “in 100 μl respectively. Again, it was”

| Structure (SMILES) | Inhibitory effects of cyclooxygenase (COX): COX-2 ([1]; 30 nM) | Inhibitory effects of cyclooxygenase (COX): COX-2 ([1]; 100 nM) | Inhibitory effects of cyclooxygenase (COX): COX-2 ([1]; 300 nM) | Inhibitory effects of cyclooxygenase (COX): COX-1 ([2]; 3 μM) [% inhibition] | Inhibitory effects of cyclooxygenase (COX): COX-1 ([2]; 10 μM) [% inhibition] | Inhibitory effects of cyclooxygenase (COX): COX-1 ([2]; 30 μM) [% inhibition] |
| --- | --- | --- | --- | --- | --- | --- |
| COc1ccc(-c2ccc(S(C)(=O)=O)cc2)cc1OC [Example 1, 4′-methanesulfonyl-3,4-dimethoxy-biphenyl] | 46.2 % inhibition | 50.7 % inhibition | 59.7 % inhibition | 44.4 | 50.5 | 64.7 |
| CCOc1ccc(-c2ccc(S(C)(=O)=O)cc2)cc1OCC [Example 2, 4′-methanesulfonyl-3,4-diethoxy-biphenyl] | 55.2 % inhibition | 60.5 % inhibition | 76.5 % inhibition | 61.5 | 70.5 | 77.1 |
| CCCOc1ccc(-c2ccc(S(C)(=O)=O)cc2)cc1OCCC [Example 3, 4′-methanesulfonyl-3,4-dipropyloxy-biphenyl] | 5.0 % inhibition | 5.5 % inhibition | 10.1 % inhibition | 9.4 | 10.1 | 23.4 |
| CC(C)Oc1ccc(-c2ccc(S(C)(=O)=O)cc2)cc1OC(C)C [Example 4, 4′-methanesulfonyl-3,4-diisopropyloxy-biphenyl] | ˜0 % inhibition | ˜0 % inhibition | ˜0 % inhibition | 58.2 | 70.4 | 78.4 |
| CS(=O)(=O)c1ccc(-c2ccc(OC3CC3)c(OC3CC3)c2)cc1 [Example 5, 4′-methanesulfonyl-3,4-dicyclopropyloxy-biphenyl] | 30.2 % inhibition | 33.3 % inhibition | 46.5 % inhibition | 50.3 | 58.4 | 60.4 |
| CCCCOc1ccc(-c2ccc(S(C)(=O)=O)cc2)cc1OCCCC [Example 6, 4′-methanesulfonyl-3,4-dibutyloxy-biphenyl] | ˜0 % inhibition | ˜0 % inhibition | ˜0 % inhibition | 14.7 | 20.9 | 22.7 |
| CS(=O)(=O)c1ccc(-c2ccc(OCc3ccccc3)c(OCc3ccccc3)c2)cc1 [Example 7, 4′-methanesulfonyl-3,4-dibenzyloxy-biphenyl] | 47.6 % inhibition | 60.3 % inhibition | 68.4 % inhibition | 36.8 | 40.5 | 41.1 |
| CS(=O)(=O)c1ccc(-c2ccc(OC3CCCC3)c(OC3CCCC3)c2)cc1 [Example 8, 4′-methanesulfonyl-3,4-dicyclopentyloxy-biphenyl] | 27.4 % inhibition | 42.7 % inhibition | 54.7 % inhibition | 29.7 | 40.2 | 49.7 |
| CCCCOc1cc(-c2ccc(S(C)(=O)=O)cc2)ccc1OC(C)C [Example 9, 3-butoxy-4-isopropoxy-4′-methanesulfonyl-biphenyl] | 44.2 % inhibition | 59.8 % inhibition | 70.4 % inhibition | 49.8 | 66.4 | 70.8 |
